{"source": "patent US20050186587A1", "about": "“Method for screening a substance which can suppress degradation of a nuclear receptor or a substance which can promote degradation of a nuclear receptor” (Interite, Inc., priority 2004, published 2005)", "key": {"[1]": {"test_system": "ERα, ERα(V364E), ERα(C447A), ERαΔAD or ERα(L540Q)", "experiment": "Amount of normal and mutant ERα protein in 293 cells with proteasome inhibitor (Test Example 8, FIG. 11)", "type": "cell-based, human", "settings": "MG132 added to the cells, FIG. 11 lanes 1 through 5", "description": "CHIP or CHIPΔUbox (a mutant having the ubiquitin ligase activity removed) were made to be expressed in cells already co-expressing normal ERα and a dominant negative mutant of ERα, and the transcriptional activation ability of ERα was measured. […] The amount of ERα in the cell nucleus extract was measured at the same time by Western blotting. ERα(V364E), ERα(C447A), ERαΔAD and ERα(L540Q) were used as the dominant negative mutants of ERα. […] ERαΔAD is a helix 12 deletion mutant, while ERα(L540Q) is a helix 12 single-residue substitution mutant, and the transcriptional activity of both is low because they can no longer bind to transcriptional activation factors. ERαΔAD and ERα(L540Q) are not temperature sensitive.\nThe amount of protein was also slightly lower in the case of ERαΔAD (See FIG. 11 lane 4)."}, "[2]": {"target": "T1, estrogen receptor alpha (ERα) (Homo sapiens, UniProt P03372)", "T1 construct": "ERα was first purified from MCF-7 cell nucleus extract by immune precipitation; endogenous in cells; host or cells: MCF-7 cells", "experiment": "Amount of ERα in MCF-7 cell nucleus extracts by Western blotting (Test Example 1)", "type": "cell-based", "settings": "MCF-7 cells, MG132 at 1 μM, both with and without estrogen, FIG. 1(b) lanes 3 and 4", "protocol": "(§1) HeLa cells, human breast cancer-derived MCF-7 cells and human fetal kidney-derived 293 cells were cultured at 37° C. in Dulbecco's modified Eagle's medium (DMEM) containing 10% FCS in humidified air containing 5% (partial pressure) carbon dioxide gas.\n10 μg of each extract of MCF-7 cells and 293 cells was isolated by 8% or 10% SDS-PAGE, and transferred to a nitrocellulose membrane. This membrane was incubated for 1 hour in a blocking solution of 1% BSA (bovine serum albumin) and 5% skim milk added to 25 mM tris-buffered saline containing 0.02% Tween20 (T-TBS), and then reacted with the respective antibodies for 1 hour at 25° C. After being washed 3 times for 10 minutes each in 25° C. T-TBS, the membranes were incubated for 1 minute at 25° C. with peroxidase-bound goat anti-mouse antibodies. Protein that reacted with the antibodies was made visible with an Amersham Pharmacia high-sensitivity chemical luminescence detection system (ECL)."}, "Flag-ERαΔAD": {"target": "T2, Flag-ERαΔAD (Homo sapiens, UniProt P03372)", "T2 construct": "ERαΔAD (1-534) consisting of amino acids 1 through 534; expressed in transfected cells; host or cells: 293 cells", "T2 sequence (P03372 1-534)": "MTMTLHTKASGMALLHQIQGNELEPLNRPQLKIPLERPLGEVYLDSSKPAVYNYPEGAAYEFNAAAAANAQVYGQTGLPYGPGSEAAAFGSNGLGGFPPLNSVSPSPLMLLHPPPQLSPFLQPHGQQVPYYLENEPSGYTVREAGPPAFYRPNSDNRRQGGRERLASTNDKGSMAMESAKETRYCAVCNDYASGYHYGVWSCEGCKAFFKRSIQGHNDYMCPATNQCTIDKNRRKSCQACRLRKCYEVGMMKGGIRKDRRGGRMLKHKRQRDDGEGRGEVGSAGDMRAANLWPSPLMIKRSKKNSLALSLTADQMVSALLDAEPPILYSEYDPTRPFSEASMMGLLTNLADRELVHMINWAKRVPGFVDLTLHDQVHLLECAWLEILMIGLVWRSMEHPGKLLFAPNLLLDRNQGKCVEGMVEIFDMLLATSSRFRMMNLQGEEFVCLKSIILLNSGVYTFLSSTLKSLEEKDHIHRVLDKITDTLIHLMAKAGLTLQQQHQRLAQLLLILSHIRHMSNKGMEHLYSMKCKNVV", "experiment": "Ubiquitination of Flag-ERαΔAD expressed in 293 cells, immune precipitation and anti-ubiquitin Western blotting", "type": "cell-based", "settings": "no estrogen added but MG132 added, FIG. 3 lane 3", "protocol": "About 50 μg of MCF-7 cell nucleus extract or 293 cell nucleus extract was incubated for 1 hour at 4° C. in 25 mM tris-buffered saline containing 0.1% Tween20 (T-TBS) together with 50 μg of either glutathione sepharose beads or anti-Flag tag antibody beads (Santa Cruz Biotechnology). Beads to which protein had bound were washed 4 times with 25 mM tris-buffered saline containing 0.1% Tween20 and centrifuged for 1 minute at 5000 rpm, and the beads were collected. Protein was eluted from the beads by boiling in loading buffer.\n(§2) Western blotting using the respective antibodies was accomplished by well-known methods (Yanagisawa, J. et al, Molecular Cell (2002) March, 9(3):553-562) with some alterations. 10 μg of each extract of MCF-7 cells and 293 cells was isolated by 8% or 10% SDS-PAGE, and transferred to a nitrocellulose membrane. This membrane was incubated for 1 hour in a blocking solution of 1% BSA (bovine serum albumin) and 5% skim milk added to 25 mM tris-buffered saline containing 0.02% Tween20 (T-TBS), and then reacted with the respective antibodies for 1 hour at 25° C. After being washed 3 times for 10 minutes each in 25° C. T-TBS, the membranes were incubated for 1 minute at 25° C. with peroxidase-bound goat anti-mouse antibodies. Protein that reacted with the antibodies was made visible with an Amersham Pharmacia high-sensitivity chemical luminescence detection system (ECL)."}, "ERαΔAD": {"test_system": "ERαΔAD", "type": "cell-based, human", "settings": "293 cells, 1 μM MG132, FIG. 2 lanes 2 and 4", "protocol": "as §1\n(§3) The target DNA was diluted with 100 μL of OptiMEM medium (Life Technologies, Inc.). The amount of DNA was adjusted to a total of 1 μg by addition of blank vector. 10 μL of lipofectamine reagent (Life Technologies, Inc.) was diluted in the same way with 100 μL of OptiMEM medium. After being left at room temperature for 5 minutes, the two liquids were mixed and left for an additional 20 minutes to form a complex. This mixture was then dripped directly onto cells seeded on 12-well plates and cultured to 40-50% confluence in DMEM containing 0.2% FCS treated with activated charcoal, and transfection was performed. 6 hours after transfection normal medium was substituted, and after 24 hours' further culture the ligand was added.\n10 μg of each extract of MCF-7 cells and 293 cells was isolated by 8% or 10% SDS-PAGE, and transferred to a nitrocellulose membrane. […] Protein that reacted with the antibodies was made visible with an Amersham Pharmacia high-sensitivity chemical luminescence detection system (ECL). […]"}, "ERα": {"target": "T3, ERα (Homo sapiens, UniProt P03372)", "T3 sequence (P03372 1-595)": "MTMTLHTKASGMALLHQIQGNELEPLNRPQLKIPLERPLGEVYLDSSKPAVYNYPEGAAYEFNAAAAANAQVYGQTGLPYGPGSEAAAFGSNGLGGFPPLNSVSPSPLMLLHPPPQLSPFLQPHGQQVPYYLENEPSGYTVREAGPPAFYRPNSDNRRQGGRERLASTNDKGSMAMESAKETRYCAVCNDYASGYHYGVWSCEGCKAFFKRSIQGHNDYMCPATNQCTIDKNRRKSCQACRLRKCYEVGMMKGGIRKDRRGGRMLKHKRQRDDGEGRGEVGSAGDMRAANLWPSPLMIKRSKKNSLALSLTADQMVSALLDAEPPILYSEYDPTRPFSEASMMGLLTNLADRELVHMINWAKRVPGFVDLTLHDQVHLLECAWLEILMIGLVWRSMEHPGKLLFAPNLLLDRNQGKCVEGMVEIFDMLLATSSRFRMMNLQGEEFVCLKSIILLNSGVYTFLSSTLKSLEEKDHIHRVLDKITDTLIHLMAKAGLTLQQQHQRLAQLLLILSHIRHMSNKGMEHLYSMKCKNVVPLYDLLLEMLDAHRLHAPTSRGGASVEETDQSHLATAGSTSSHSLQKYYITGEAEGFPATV", "settings": "293 cells, 24 hours, 1 μM OHT or 100 nM ICI (or estrogen), FIG. 7, FIGS. 8(a) and (b)", "protocol": "as §2"}, "ERα and CHIP": {"target": "T4, ERα and CHIP (Homo sapiens, UniProt P03372)", "T4 sequence (P03372 1-595)": "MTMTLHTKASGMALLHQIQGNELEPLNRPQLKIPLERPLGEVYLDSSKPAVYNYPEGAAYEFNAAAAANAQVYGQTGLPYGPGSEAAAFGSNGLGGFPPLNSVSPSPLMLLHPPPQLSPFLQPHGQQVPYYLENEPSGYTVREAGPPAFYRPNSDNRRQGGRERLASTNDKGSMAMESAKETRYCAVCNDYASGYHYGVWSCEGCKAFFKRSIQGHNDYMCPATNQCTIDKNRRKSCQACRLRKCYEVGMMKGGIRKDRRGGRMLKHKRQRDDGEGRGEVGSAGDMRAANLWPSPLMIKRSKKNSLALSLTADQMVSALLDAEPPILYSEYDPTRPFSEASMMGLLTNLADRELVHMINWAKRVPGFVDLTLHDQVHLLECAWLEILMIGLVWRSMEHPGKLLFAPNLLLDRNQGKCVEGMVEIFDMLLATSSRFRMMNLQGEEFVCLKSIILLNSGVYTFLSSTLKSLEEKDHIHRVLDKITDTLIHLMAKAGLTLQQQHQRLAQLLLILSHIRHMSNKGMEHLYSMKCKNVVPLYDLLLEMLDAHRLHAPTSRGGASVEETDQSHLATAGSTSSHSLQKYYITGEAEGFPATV", "settings": "293 cells, 24 hours, 10 nM estrogen, 1 μM tamoxifen (OHT) or 100 nM fulvestrant (ICI), FIG. 6", "protocol": "as §3\nGST pull-down was performed by well-known methods (Yanagisawa, J. et al, Molecular Cell (2002) March, 9(3):553-562). […]\nWestern blotting using the respective antibodies was accomplished by well-known methods (Yanagisawa, J. et al, Molecular Cell (2002) March, 9(3):553-562) with some alterations. […] Protein that reacted with the antibodies was made visible with an Amersham Pharmacia high-sensitivity chemical luminescence detection system (ECL). […]"}, "[3]": {"target": "T5, estrogen receptor alpha (ERα), not bound to a ligand, P03372", "T5 chain": "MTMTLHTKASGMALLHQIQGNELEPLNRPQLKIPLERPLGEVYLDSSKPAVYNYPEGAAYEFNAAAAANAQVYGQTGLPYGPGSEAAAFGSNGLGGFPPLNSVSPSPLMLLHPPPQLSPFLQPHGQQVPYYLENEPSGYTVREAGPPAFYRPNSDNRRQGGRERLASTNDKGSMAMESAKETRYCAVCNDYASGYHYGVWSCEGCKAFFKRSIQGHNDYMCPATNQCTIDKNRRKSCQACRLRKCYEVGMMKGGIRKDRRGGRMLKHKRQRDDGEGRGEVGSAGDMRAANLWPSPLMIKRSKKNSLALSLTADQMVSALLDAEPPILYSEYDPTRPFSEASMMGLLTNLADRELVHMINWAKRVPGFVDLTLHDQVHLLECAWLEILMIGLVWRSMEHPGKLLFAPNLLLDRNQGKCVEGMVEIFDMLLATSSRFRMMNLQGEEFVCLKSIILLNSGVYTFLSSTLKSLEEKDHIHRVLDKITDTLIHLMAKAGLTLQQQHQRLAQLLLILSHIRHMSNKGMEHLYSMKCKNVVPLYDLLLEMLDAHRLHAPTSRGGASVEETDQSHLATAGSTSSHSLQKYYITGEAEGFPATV"}}, "note": "Where a SMILES comes first, the peptide text is derived from it. The star is where a group is joined. Cbz = O=C(OCc1ccccc1)*", "data": [{"molecule": "CC(C)C[C@@H](C=O)NC(=O)[C@H](CC(C)C)NC(=O)[C@H](CC(C)C)NC(=O)OCc1ccccc1", "note": "[MG132] (Cbz-Leu-Leu-Leu-aldehyde)", "values": [{"measurement": "amount of expression of mutant ERα versus normal ERα", "setting": "[1]", "value": "no difference between the various mutants and normal ERα"}, {"measurement": "amount of ERα", "setting": "[2]", "value": "increased dramatically"}, {"measurement": "ubiquitinated ERαΔAD (Flag-ERαΔAD-Ub)", "setting": "Flag-ERαΔAD", "value": "strong accumulation of a polyubiquitin protein"}, {"measurement": "degradation of ERαΔAD", "setting": "ERαΔAD", "value": "inhibited"}]}, {"molecule": "C[C@]12CC[C@@H]3c4ccc(O)cc4C[C@@H](CCCCCCCCC[S+]([O-])CCCC(F)(F)C(F)(F)F)[C@H]3[C@@H]1CC[C@@H]2O", "note": "(some centres unmarked) [fulvestrant]", "values": [{"measurement": "degradation of ERα by CHIP", "setting": "ERα", "value": "block degradation of ERα by CHIP"}, {"measurement": "co-precipitation of ERα with CHIP", "setting": "ERα and CHIP", "value": "co-precipitated with CHIP only when cultured without the addition of a ligand"}]}, {"molecule": "CHIP (carboxyl-terminus of Hsc70 interacting protein) (protein) MKGKEEKEGGARLGAGGGSPEKSPSAQELKEQGNRLFVGRKYPEAAACYGRAITRNPLVAVYYTNRALCYLKMQQHEQALADCRRALELDGQSVKAHFFLGQCQLEMESYDEAIANLQRAYSLAKEQRLNFGDDIPSALRIAKKKRWNSIEERRIHQESELHSYLSRLIAAERERELEECQRNHEGDEDDSHVRAQQACIEAKHDKYMADMDELFSQVDEKRKKRDIPDYLCGKISFELMREPCITPSGITYDRKDIEEHLQRVGHFDPVTGSPLTQEQFIPNLAMKEVIDAFISENGWVEDY", "values": [{"measurement": "amount of degradation of ERα measured by Western blotting", "setting": "[3]", "value": "both ERαΔAD and ERα were strongly degraded when estrogen was not added (see FIG. 7, lane 3). This degradation increased when the expressed amount of CHIP was increased"}, {"measurement": "amount of degradation of ERαΔAD measured by Western blotting", "setting": "ERαΔAD, P03372", "value": "both ERαΔAD and ERα were strongly degraded when estrogen was not added (see FIG. 7, lane 3). This degradation increased when the expressed amount of CHIP was increased"}]}]}
